What is called pEC50 is the negative decadic logarithm of the EC50, by convention in mol/L.

The structures appear in SMILES notation. pEC50: −log10 of the molar value.

The target of this test is T1, human S1P1 receptor (Homo sapiens, UniProt P21453).
T1 construct: expressed in transfected cells; membranes were used
T1 sequence (P21453 whole entry): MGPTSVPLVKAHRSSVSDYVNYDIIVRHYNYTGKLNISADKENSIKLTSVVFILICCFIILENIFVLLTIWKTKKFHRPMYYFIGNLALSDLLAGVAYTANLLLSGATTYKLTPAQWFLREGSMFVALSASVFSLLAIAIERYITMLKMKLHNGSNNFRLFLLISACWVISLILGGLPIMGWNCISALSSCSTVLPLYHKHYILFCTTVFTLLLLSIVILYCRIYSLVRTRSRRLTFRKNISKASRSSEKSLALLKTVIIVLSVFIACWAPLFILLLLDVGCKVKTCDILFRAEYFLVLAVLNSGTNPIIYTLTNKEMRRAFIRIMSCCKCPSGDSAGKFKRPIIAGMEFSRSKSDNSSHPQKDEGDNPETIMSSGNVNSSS
In words: GTP γ35S binding assay for S1P1 activity. Format: biochemical. The settings on record: activity potency from GTP γ35S binding; membrane protein from cells stably expressing the S1P1 receptor; 30 min at 25° C. As to the method: Compounds were synthesized and tested for S1P1 activity using the GTP γ^35S binding assay. These compounds may be assessed for their ability to activate or block activation of the human S1P1 receptor in cells stably expressing the S1P1 receptor.
GTP γ^35S binding was measured in the medium containing (mM) HEPES 25, pH 7.4, MgCl2 10, NaCl 100, dithitothreitol 0.5, digitonin 0.003%, 0.2 nM GTP γ^35S, and 5 μg membrane protein in a volume of 150 μl. Test compounds were included in the concentration range from 0.08 to 5,000 nM unless indicated otherwise. Membranes were incubated with 100 μM 5′-adenylylimmidodiphosphate for 30 min, and subsequently with 10 μM GDP for 10 min on ice. Drug solutions and membrane were mixed, and then reactions were initiated by adding GTP γ^35S and continued for 30 min at 25° C. Reaction mixtures were filtered over Whatman GF/B filters under vacuum, and washed three times with 3 mL of ice-cold buffer (HEPES 25, pH7.4, MgCl2 10 and NaCl 100). Filters were dried and mixed with scintillant, and counted for ^35S activity using a β-counter. Agonist-induced GTP γ^35S binding was obtained by subtracting that in the absence of agonist. Binding data were analyzed using a non-linear regression method. In case of antagonist assay, the reaction mixture contained 10 nM S1P in the presence of test antagonist at concentrations ranging from 0.08 to 5000 nM.
(GTPγS is a poorly hydrolysed GTP analogue; its binding reports G protein activation.)
`Cc1ccc(NC(c2cccc(Cl)c2)c2nc(-c3ccc(CNCCC(=O)O)cc3)no2)cc1C` (stereo not shown) [3-{[4-(5-{(3-chlorophenyl)[(3,4-dimethylphenyl)amino]methyl}-1,2,4-oxadiazol-3-yl)benzyl]amino}propanoic acid] had a pEC50 of 8.82. For the compound `Cc1ccc(CC(c2cccc(Cl)c2)c2nc(-c3ccc(CNCCC(=O)O)cc3)no2)cc1C` (stereo not shown) [Compound 1, 3-[(4-{5-[1-(3-chlorophenyl)-2-(3,4-dimethylphenyl)ethyl]-1,2,4-oxadiazol-3-yl}benzyl)amino]propanoic acid], the pEC50 is 6.51.

Compound `Cc1ccc(CC(c2cccc(Cl)c2)c2nc(-c3ccc(CNCCCP(=O)(O)O)cc3)no2)cc1C` (stereo not shown) [Compound 2, {3-[(4-{5-[1-(3-chlorophenyl)-2-(3,4-dimethylphenyl)ethyl]-1,2,4-oxadiazol-3-yl}benzyl)amino]propyl}phosphonic acid] showed a negative-log EC50 (pEC50) of 8.42. The value for `Cc1ccc(CC(c2cccc(F)c2)c2nc(-c3ccc(CNCCC(=O)O)cc3)no2)cc1C` (stereo not shown) [Compound 3, 3-[(4-{5-[2-(3,4-dimethylphenyl)-1-(3-fluorophenyl)ethyl]-1,2,4-oxadiazol-3-yl}benzyl)amino]propanoic acid] was 6.22; that for `Cc1ccc(CC(c2cccc(F)c2)c2nc(-c3ccc(CNCCCP(=O)(O)O)cc3)no2)cc1C` (stereo not shown) [Compound 4, {3-[(4-{5-[2-(3,4-dimethylphenyl)-1-(3-fluorophenyl)ethyl]-1,2,4-oxadiazol-3-yl}benzyl)amino]propyl}phosphonic acid] was 8.39; that for `Cc1ccc(CC(c2cccc(Cl)c2)c2nc(-c3ccc(CCC(=O)O)cc3C)no2)cc1C` (stereo not shown) [Compound 6, 3-(4-{5-[1-(3-chlorophenyl)-2-(3,4-dimethylphenyl)ethyl]-1,2,4-oxadiazol-3-yl}-3-methylphenyl)propanoic acid] was 5.97. Take `Cc1ccc(CC(c2ccc(Cl)cc2)c2nc(-c3ccc(CCC(=O)O)cc3C)no2)cc1C` (stereo not shown) [Compound 7, 3-(4-{5-[1-(4-chlorophenyl)-2-(3,4-dimethylphenyl)ethyl]-1,2,4-oxadiazol-3-yl}-3-methylphenyl)propanoic acid]: the pEC50 was 7.05. Compound `Cc1cccc(CC(c2cccc(Cl)c2)c2nc(-c3ccc(CCC(=O)O)cc3C)no2)c1` (stereo not shown) [Compound 8, 3-(4-{5-[1-(3-chlorophenyl)-2-(3-methylphenyl)ethyl]-1,2,4-oxadiazol-3-yl}-3-methylphenyl)propanoic acid] had a pEC50 of 7.77. `Cc1ccc(CC(c2cccc(Cl)c2)c2nc(-c3ccc(C(=O)NCCC(=O)O)cc3)no2)cc1C` (stereo not shown) [Compound 9, 3-[(4-{5-[1-(3-chlorophenyl)-2-(3,4-dimethylphenyl)ethyl]-1,2,4-oxadiazol-3-yl}benzoyl)amino]propanoic acid] showed a pEC50 of 6.04. `Cc1ccc(CC(c2cc(F)cc(F)c2)c2nc(-c3ccc(CNCCC(=O)O)cc3)no2)cc1C` (stereo not shown) [Compound 10, 3-[(4-{5-[1-(3,5-difluorophenyl)-2-(3,4-dimethylphenyl)ethyl]-1,2,4-oxadiazol-3-yl}benzyl)amino]propanoic acid] showed a pEC50 of 5.96.

Compound `Cc1ccc(CC(c2cc(F)cc(F)c2)c2nc(-c3ccc(CNCCCP(=O)(O)O)cc3)no2)cc1C` (stereo not shown) [Compound 11, {3-[(4-{5-[1-(3,5-difluorophenyl)-2-(3,4-dimethylphenyl)ethyl]-1,2,4-oxadiazol-3-yl}benzyl)amino]propyl}phosphonic acid] showed a pEC50 of 8.28.

Compound `Cc1ccc(CC(c2cccc(C(F)(F)F)c2)c2nc(-c3ccc(CNCCC(=O)O)cc3)no2)cc1C` (stereo not shown) [Compound 12, 3-{[4-(5-{2-(3,4-dimethylphenyl)-1-[3-(trifluoromethyl)phenyl]ethyl}-1,2,4-oxadiazol-3-yl)benzyl]amino}propanoic acid] showed a pEC50 of 6.47. `Cc1cc(C)cc(C(Cc2ccc(C)c(C)c2)c2nc(-c3ccc(CNCCC(=O)O)cc3)no2)c1` (stereo not shown) [Compound 13, 3-[(4-{5-[2-(3,4-dimethylphenyl)-1-(3,5-dimethylphenyl)ethyl]-1,2,4-oxadiazol-3-yl}benzyl)amino]propanoic acid]: the pEC50 is 6.27.

The values are drawn from patent publication US8497254B2, “Oxadiazole derivatives as sphingosine 1-phosphate (S1P) receptor modulators” (Allergan, Inc., priority 2010, dated 2013).
